Some test systems named below: ACHN renal; DMS 273 small cell lung; EKVX NSCLC; HT29 colon; SK-MEL-2 melanoma; SK-OV-3 ovarian; U251 CNS; UACC-62 melanoma; XF 498 CNS; MCF7 breast; MDA-N.
Common to all, as to assay: inhibition of tumour cell growth, NCI panel, 48 h

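Assay format: 96-well plates, 48-hour exposure. TGI denotes the concentration required for complete inhibition of growth.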

With `COc1ccc(OC)c(NC(=O)C(=O)C(C(=O)c2ccccc2F)C2OC(=O)c3ccccc32)c1` (configuration not stated), the TGI in the experiment with ACHN renal, with DMS 273 small cell lung, in the experiment with EKVX NSCLC, in the experiment with HT29 colon, in the experiment on SK-MEL-2 melanoma and with SK-OV-3 ovarian was > 100 µM each time. The TGI was 49.5 µM in the experiment with U251 CNS, > 100 µM in the experiment with UACC-62 melanoma and > 100 µM with XF 498 CNS.
Regarding `c1c(N2CCOCC2)ssc1=[N+]1CCOCC1`, the TGI in the experiment with ACHN renal, in the experiment with DMS 273 small cell lung, in the experiment with EKVX NSCLC, in the experiment on HT29 colon, with SK-MEL-2 melanoma and in the experiment with SK-OV-3 ovarian was > 100 µM each time. Also, the TGI in the experiment on U251 CNS and with UACC-62 melanoma was > 100 µM each time.
In the case of `Cn1nc2c(c1N)Cc1c(nn(C)c1N)-c1ccccc1-2`, the TGI with ACHN renal, in the experiment on EKVX NSCLC, in the experiment on HT29 colon, in the experiment on MCF7 breast, with MDA-N and in the experiment on SK-MEL-2 melanoma was > 100 µM each time. Further, the TGI with SK-OV-3 ovarian, in the experiment on U251 CNS and in the experiment with UACC-62 melanoma was > 100 µM throughout.
For `COc1cccc(N2C(=O)CS(=O)(=O)C2c2cccc(Oc3ccccc3)c2)c1` (configuration not stated), the TGI was 60.2 µM with ACHN renal; 59.3 µM in the experiment with EKVX NSCLC; 89.3 µM in the experiment on HT29 colon; 10.6 µM in the experiment with MCF7 breast; 6.45 µM with MDA-N; 38.8 µM in the experiment with SK-MEL-2 melanoma. Besides, the TGI in the experiment with SK-OV-3 ovarian was > 100 µM; with U251 CNS it was 49.7 µM; in the experiment with UACC-62 melanoma it was 24.7 µM.
Turning to `S=c1[nH]nc(Cn2c3ccc(Br)cc3c3nc4ccccc4nc32)n1C1CCCCC1`, the TGI in the experiment on ACHN renal is 98.9 µM; in the experiment on EKVX NSCLC, > 100 µM; in the experiment with HT29 colon, > 100 µM; in the experiment on MCF7 breast it was > 100 µM; with MDA-N it was > 93.7 µM; with SK-MEL-2 melanoma, 54.6 µM. The TGI was 83.7 µM in the experiment on SK-OV-3 ovarian, > 67.6 µM with U251 CNS and 41.1 µM in the experiment on UACC-62 melanoma.
Regarding `COc1cc(OC)cc(Oc2nc3cc(F)c(F)cc3nc2-c2ccccc2)c1`, the TGI with ACHN renal, in the experiment on EKVX NSCLC, in the experiment on HT29 colon, in the experiment on MCF7 breast, with MDA-N and with SK-MEL-2 melanoma was > 100 µM throughout. Further, the TGI in the experiment with SK-OV-3 ovarian, in the experiment with U251 CNS and in the experiment on UACC-62 melanoma was > 100 µM throughout.
On to `Cn1c2c(c3ccccc31)CCN1C(=O)C34CCCC3CC21S4` (configuration not stated), for which the TGI with ACHN renal, with EKVX NSCLC, in the experiment with HT29 colon, in the experiment with MCF7 breast, in the experiment with MDA-N and in the experiment with SK-MEL-2 melanoma was > 100 µM each time. Also, the TGI in the experiment with SK-OV-3 ovarian, with U251 CNS and in the experiment on UACC-62 melanoma was > 100 µM throughout.
As to `CC1(C)N=C(N)N=C(N)N1c1cccc(OCc2cccc(N)c2)c1`, the TGI in the experiment on ACHN renal, in the experiment with EKVX NSCLC, in the experiment with HT29 colon, with MCF7 breast, with MDA-N and in the experiment with SK-MEL-2 melanoma was > 100 µM in each case. In addition, the TGI with SK-OV-3 ovarian, in the experiment on U251 CNS and in the experiment with UACC-62 melanoma was > 100 µM in each case.
With `COc1cc2[nH]c(=O)c3cc(-c4ccccc4)cc4c(Cl)nc(c1OC)c2c43`, the TGI with ACHN renal was 77.6 µM; in the experiment on EKVX NSCLC, 64 µM; in the experiment with HT29 colon it was > 60.7 µM; in the experiment with MCF7 breast it was 7.71 µM; in the experiment with MDA-N, 13.5 µM; in the experiment on SK-MEL-2 melanoma, 38.7 µM. In addition, the TGI in the experiment with SK-OV-3 ovarian is > 73.9 µM; with U251 CNS, 62.5 µM; in the experiment with UACC-62 melanoma it was 34.6 µM.
Take `CC(=O)OC1CC2(O)C(CCC3(C)C(c4ccc(=O)oc4)CCC32O)C2(C)C1=CC(O)C1OC12` (configuration not stated): the TGI in the experiment on DMS 273 small cell lung was found to be 0.135 µM; in the experiment on EKVX NSCLC, 0.157 µM; in the experiment on HT29 colon it was 2.89 µM; with MCF7 breast, 0.402 µM; in the experiment with SK-MEL-2 melanoma, 0.222 µM; with SK-OV-3 ovarian, 0.252 µM. The TGI with U251 CNS was 0.281 µM; in the experiment on UACC-62 melanoma, 0.117 µM; with XF 498 CNS it was 0.201 µM.
Take `COC(=O)C1=C(C)NC(C)=C(C(=O)OC)C1c1cccc(N=O)c1`: the TGI in the experiment on ACHN renal turned out to be 27.6 µM; in the experiment on EKVX NSCLC it was 36 µM; in the experiment on HT29 colon, 34 µM; with MCF7 breast, 40.1 µM; with MDA-N, 26.2 µM; with SK-MEL-2 melanoma, 30.9 µM. Moreover, the values for the TGI in the experiment on SK-OV-3 ovarian, with U251 CNS and in the experiment with UACC-62 melanoma were 44.3 µM, 30.7 µM and 27.6 µM, respectively.
As to `O=C(OC12CC3CC(CC(C3)C1)C2)c1ccc(NCc2cc(O)ccc2O)cc1`, the TGI in the experiment with ACHN renal is 2.35 µM; in the experiment with EKVX NSCLC, 3.37 µM; in the experiment on HT29 colon, 9.73 µM; in the experiment with MCF7 breast, 8.54 µM; in the experiment on MDA-N, 6.56 µM; in the experiment on SK-MEL-2 melanoma, 3.57 µM. For the same compound, the TGI in the experiment on SK-OV-3 ovarian is 13.2 µM; in the experiment on U251 CNS, 2.69 µM; in the experiment on UACC-62 melanoma, 3.28 µM.
For `CCCO/N=[N+](\[O-])N(CC)CC`, the TGI with ACHN renal, with DMS 273 small cell lung, with EKVX NSCLC, in the experiment on HT29 colon, in the experiment with SK-MEL-2 melanoma and in the experiment on SK-OV-3 ovarian was > 100 µM in each case. The TGI with U251 CNS, with UACC-62 melanoma and in the experiment with XF 498 CNS was > 100 µM each time.
Turning to `CCN(CC)c1ccc(NC(=S)NN(C)C)cc1`, the TGI in the experiment with ACHN renal, in the experiment on EKVX NSCLC, in the experiment on HT29 colon, with MCF7 breast, with MDA-N and with SK-MEL-2 melanoma was > 10 µM throughout. The TGI in the experiment with SK-OV-3 ovarian, in the experiment with U251 CNS and in the experiment on UACC-62 melanoma was > 10 µM each time.
As for `O=C1c2cccnc2S(=O)(=O)N1c1ccc([N+](=O)[O-])cc1`, the TGI in the experiment on ACHN renal, in the experiment on EKVX NSCLC, in the experiment with HT29 colon, in the experiment with MCF7 breast, in the experiment on MDA-N and with SK-MEL-2 melanoma was > 100 µM each time. Further, the TGI in the experiment on SK-OV-3 ovarian, with U251 CNS and with UACC-62 melanoma was > 100 µM each time.
Regarding `Cc1cn(CCCCCOC(=O)NC(CCCNC(N)=O)C(=O)O)c(=O)[nH]c1=O` (configuration not stated), the TGI with ACHN renal, with EKVX NSCLC, in the experiment on HT29 colon, with MCF7 breast, in the experiment with MDA-N and in the experiment with SK-MEL-2 melanoma was > 100 µM in each case. Moreover, the TGI with SK-OV-3 ovarian, in the experiment on U251 CNS and with UACC-62 melanoma was > 100 µM in each case.
As to `CC1(C)OC[C@@H](C[C@H](O)COCc2ccccc2)O1`, the TGI in the experiment on ACHN renal, with EKVX NSCLC, in the experiment on HT29 colon, in the experiment with MCF7 breast, in the experiment with MDA-N and in the experiment on SK-MEL-2 melanoma was > 100 µM in each case. The TGI in the experiment on SK-OV-3 ovarian, in the experiment on U251 CNS and with UACC-62 melanoma was > 100 µM throughout.

(Values after PubChem BioAssay (NCI).)
